The structures appear in SMILES notation.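 These data come from cells grown in 96-well plates and exposed to compound for 48 hours at five concentrations. Here, GI50 denotes the concentration required for 50% inhibition of growth. TGI denotes the concentration required for complete inhibition of growth.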 Where only a bound is given, the exact number is not on record here.

What all share (test): DTP human tumour cell line panel, 48 h
Assay [1] has as its system OVCAR-3 ovarian.
Assay [2] relates to SF-539 CNS.
The test system of assay [3] is MCF7 breast.
In assay [4] the test system is SF-295 CNS.
For assay [5], the system named is DU-145 prostate.
For assay [6], the system named is COLO 205 colon.
The test system of assay [7] is SR leukemia.
In assay [8] the test system is TK-10 renal.

As a reminder, the GI50 is the concentration giving 50% growth inhibition. A word on the TGI: it is the concentration at which net growth stops. Regarding `COc1ccc(-c2nsc3c2NC(=O)CC3c2cccc(OC)c2)cc1` (configuration not stated), the GI50 is 0.705 µM in assay [1]; 1.87 µM in assay [2]; 0.55 µM in assay [3]; 1.54 µM in assay [4]; 2.59 µM in assay [5]; 0.801 µM in assay [6]. The TGI is 4.41 µM in assay [1]; 6.7 µM in assay [2]; more than 100 µM in assay [3]; 12.4 µM in assay [4]; 19.1 µM in assay [5]; 6.92 µM in assay [6].
As to `O=C(/C=C/C=C/c1ccccc1)c1ccccc1`, the concentration for total growth inhibition (TGI) in assay [1] was 34.3 µM; in assay [2], 32.8 µM; in assay [3], 42.9 µM; in assay [7] it was 34.5 µM; in assay [5], 40.1 µM; in assay [6] it was 31.5 µM. Moreover, the TGI in assay [8] came out at 42.3 µM.
Regarding `O=C1c2cc3c(cc2-c2c1c1cc(Cl)c(Cl)cc1c(=O)n2C[C@H](O)CO)OCO3`, the GI50 is 0.0157 µM in assay [1]; less than 0.01 µM in assay [2]; less than 0.01 µM in assay [7]; less than 0.01 µM in assay [4]; less than 0.01 µM in assay [5]; less than 0.01 µM in assay [6]. For the same compound, in assay [8], the GI50 was 0.0578 µM. The TGI came to 0.0769 µM in assay [1]; 0.0175 µM in assay [2]; 3.78 µM in assay [7]; 1.8 µM in assay [5]; 0.291 µM in assay [6]; 0.934 µM in assay [8].
Regarding `CCc1c(Cl)c(C)cc(O)c1Cl`, the TGI is more than 100 µM in assay [1]; 78.9 µM in assay [2]; more than 100 µM in assay [3]; more than 100 µM in assay [4]; more than 100 µM in assay [5]; more than 100 µM in assay [6]. In assay [8], the TGI is more than 100 µM.
On to `CC(C)OC(=O)[C@H](C)NP(=O)(OC[C@H]1O[C@@H](n2ccc(=O)[nH]c2=O)[C@](C)(F)[C@@H]1O)Oc1ccccc1` (some centres not stated), for which the GI50 in assay [1], in assay [2], in assay [3], in assay [7], in assay [4] and in assay [5] was more than 100 µM throughout. The GI50 in assay [8] is more than 100 µM. In addition, the TGI in assay [1], in assay [2], in assay [3], in assay [7], in assay [4] and in assay [5] was more than 100 µM throughout. In assay [8], this compound returned a TGI of more than 100 µM.
Turning to `Cc1cc(N(CCCNc2ccnc3cc(Cl)ccc23)Cc2ccc3c(c2)OCO3)nc(N2CCOCC2)n1`, the GI50 in assay [1] was 0.359 µM; in assay [2], 0.251 µM; in assay [3] it was 0.286 µM; in assay [5] it was 0.353 µM; in assay [6], 0.269 µM. Moreover, the TGI was 1.92 µM in assay [1]; 0.66 µM in assay [2]; 92 µM in assay [3]; 53.8 µM in assay [5]; 0.802 µM in assay [6].
As to `COc1ccc(/C(=C\C=C(C#N)C#N)Sc2nc3ccccc3s2)cc1`, the GI50 in assay [1] is 8.26 µM; in assay [2], 1.19 µM; in assay [3], 2.26 µM; in assay [4], 13.6 µM; in assay [6] it was 7.24 µM; in assay [8], 5.43 µM. Further, the TGI in assay [1] was found to be 17.7 µM; in assay [2], 2.59 µM; in assay [3] it was 17.9 µM; in assay [4], 39.9 µM; in assay [6], 17.4 µM; in assay [8], 11.8 µM.
Turning to `Oc1ccc(Nc2c3ccccc3nc3occ(Cl)c23)cc1`, the GI50 in assay [1] was 3.12 µM; in assay [3] it was 3.38 µM; in assay [7] it was 2.3 µM; in assay [4], 4.65 µM; in assay [5], 22.4 µM; in assay [6], 4.12 µM. Also, the GI50 in assay [8] was 6.46 µM. The TGI in assay [1] is 8.76 µM; in assay [3] it was 11.3 µM; in assay [7], 8.62 µM; in assay [4] it was more than 100 µM; in assay [5], more than 100 µM; in assay [6], more than 100 µM. In assay [8], this compound showed a TGI of 50.8 µM.
With `COC(=O)c1ccc(-c2c(C#N)[n+](=O)c3cc(Cl)c(Cl)cc3n2[O-])cc1`, the GI50 in assay [1] was 11 µM; in assay [2] it was 19.7 µM; in assay [3] it was 19.2 µM; in assay [4], 12.5 µM; in assay [5], 20.2 µM; in assay [6], 22 µM. The GI50 in assay [8] was 33.6 µM. For the same compound, the TGI in assay [1] was found to be 27.8 µM; in assay [2] it was 40.5 µM; in assay [3], 42.1 µM; in assay [4] it was 33.7 µM; in assay [5] it was 40.9 µM; in assay [6] it was 52.1 µM. Besides, in assay [8], the TGI turned out to be 95.1 µM.
As for `O=C1CCC/C=C\C[C@H]2C=CC(=O)/C2=C/C[C@H](C/C=C\CC(F)(F)F)O1`, the GI50 in assay [1] is 0.538 µM; in assay [2], 0.676 µM; in assay [3] it was 0.336 µM; in assay [4], 0.401 µM; in assay [5], 0.607 µM; in assay [6], 0.368 µM. Besides, the GI50 in assay [8] is 0.618 µM. Besides, the TGI in assay [1] is 1.75 µM; in assay [2] it was 3.08 µM; in assay [3] it was 3.16 µM; in assay [4], 1.13 µM; in assay [5], 2.33 µM; in assay [6], 0.726 µM. For the same compound, the TGI in assay [8] came to 2.17 µM.
`CSc1ccccc1C#C/C=C\C#Cc1ccccc1N`: the GI50 was 0.836 µM in assay [1]; 7.2 µM in assay [2]; 1.83 µM in assay [4]; 15.4 µM in assay [5]; 13.6 µM in assay [6]. Moreover, the TGI in assay [1] turned out to be 3.98 µM; in assay [2] it was 23.6 µM; in assay [4], 5.55 µM; in assay [5] it was 45.6 µM; in assay [6], 29.5 µM.

(Values after PubChem BioAssay (NCI).)
